Reference: ChEMBL document CHEMBL4420073, “Small molecule inhibitors of MUC1 and methods of identifying the same” (2015)
The source made the active and inactive calls. The rule behind the calls is not given here.

What was measured:
Mucin-1 (Homo sapiens) [1] = target: Mucin-1 (Homo sapiens) (UniProt P15941); assay: Inhibition of biotinylated MUC1-CD dimerization (unknown origin) assessed as decrease in oligomer formation at 100 uM by streptavidin-HRP based assay relative to control
Mucin-1 (Homo sapiens) [2] = target: Mucin-1 (Homo sapiens) (UniProt P15941); assay: Inhibition of soluble unbound MUC1-CD dimerization (unknown origin) by immunoblot analysis
Mucin-1 (Homo sapiens) [3] = target: Mucin-1 (Homo sapiens) (UniProt P15941); assay: Inhibition of MUC1-CD dimerization (unknown origin) expressed in HEK293 cells assessed as disruption of interaction between Flag-MUC1-CD and GFP-MUC1-CD by coimmunoprecipitation assay; format: cell-based
Mucin-1 (Homo sapiens) [4] = target: Mucin-1 (Homo sapiens) (UniProt P15941); assay: Inhibition of MUC1-CD dimerization in human MCF10A cells assessed as reduction in MUC1-C levels at 50 to 100 uM incubated for 3 days by immunoblot analysis; format: cell-based
MCF-10A [5] = assay: Growth inhibition of immortalized human MCF10A cells assessed as reduction in cell number up to 100 uM incubated for 3 days by MTS assay; format: functional, cell-based
MCF-10A [6] = assay: Induction of apoptosis in immortalized human MCF10A cells assessed as caspase-9 cleavage at 75 uM incubated for 3 days by immunoblot analysis; format: functional, cell-based
MCF-10A [7] = assay: Induction of cell membrane integrity loss in immortalized human MCF10A cells at 75 uM incubated for 3 days by propidium iodide staining based flow cytometry; format: functional
MCF7 [8] = assay: Reduction of MUC1 mRNA levels in human MCF7 cells at 75 uM incubated for 3 days by qRT-PCR analysis; format: functional, cell-based
Mucin-1 (Homo sapiens) [9] = target: Mucin-1 (Homo sapiens) (UniProt P15941); assay: Inhibition of MUC1 nuclear import in human MCF7 cells assessed as decrease in nuclear MUC1-C levels at 75 uM incubated for 3 days by immunoblot analysis; format: cell-based
Mucin-1 (Homo sapiens) [10] = target: Mucin-1 (Homo sapiens) (UniProt P15941); assay: Inhibition of MUC1 in human MCF7 cells assessed as decrease in MUC1 protein level in whole cell lysates at 75 uM incubated for 3 days by immunoblot analysis; format: subcellular; conditions: Lysate
MCF7 [11] = assay: Induction of cell membrane integrity loss in human MCF7 cells assessed as PI uptake level at 75 uM incubated for 3 days by propidium iodide staining based flow cytometry (reference value: 22%); format: functional
MCF-10A [12] = assay: Induction of cell membrane integrity loss in immortalized human MCF10A cells assessed as PI uptake level at 50 uM incubated for 3 days by propidium iodide staining based flow cytometry (reference value: 23%); format: functional
MCF-10A [13] = assay: Induction of cell membrane integrity loss in immortalized human MCF10A cells assessed as PI uptake level at 75 uM incubated for 3 days by propidium iodide staining based flow cytometry (reference value: 23%); format: functional
Mucin-1 (Homo sapiens) [14] = target: Mucin-1 (Homo sapiens) (UniProt P15941); assay: Inhibition of His-tagged MUC1-CD dimerization (unknown origin) assessed as decrease in oligomer formation incubated for 1 hr by SDS-polyacrylamide electrophoresis method based luminescence assay
Mucin-1 (Homo sapiens) [15] = target: Mucin-1 (Homo sapiens) (UniProt P15941); assay: Inhibition of MUC1-CD dimerization (unknown origin) expressed in HEK293 cells assessed as disruption of interaction between Flag-MUC1-CD and GFP-MUC1-CD at […] by coimmunoprecipitation assay; format: cell-based
[16] = Drug uptake in human ZR-75-1 cells assessed as mean fluorescence intensity at 5 uM using FITC-tagged peptide incubated for 2 hrs by flow cytometry (reference value: 24); format: ADME, cell-based; conditions: zr-75-1, 2 h
[17] = Drug uptake in human ZR-75-1 cells assessed as mean fluorescence intensity at 5 uM using FITC-tagged peptide incubated for 6 hrs by flow cytometry (reference value: 24); format: ADME, cell-based; conditions: zr-75-1, 6 h
[18] = Drug uptake in human ZR-75-1 cells assessed as mean fluorescence intensity at 5 uM using FITC-tagged peptide incubated for 24 hrs by flow cytometry (reference value: 24); format: ADME, cell-based; conditions: zr-75-1, 24 h
ZR-75-1 [19] = assay: Effect on cellular MUC1-C levels in human ZR-75-1 cells at 5 uM using FITC-tagged peptide by Western blot analysis; format: functional, cell-based
Mucin-1 (Homo sapiens) [20] = target: Mucin-1 (Homo sapiens) (UniProt P15941); assay: Inhibition of MUC1 nuclear import in human ZR-75-1 cells assessed as decrease in nuclear MUC1-C levels at 5 uM by Western blot analysis; format: cell-based
Mucin-1 (Homo sapiens) [21] = target: Mucin-1 (Homo sapiens) (UniProt P15941); assay: Inhibition of MUC1 nuclear import in human MCF7 cells assessed as decrease in nuclear MUC1-C levels at 5 uM by Western blot analysis; format: cell-based
ZR-75-1 [22] = assay: Induction of cell cycle arrest in human ZR-75-1 cells assessed as accumulation at G1 phase at 5 uM incubated for 3 days by propidium iodide staining based flow cytometry (reference value: 64%); format: functional
ZR-75-1 [23] = assay: Induction of cell cycle arrest in human ZR-75-1 cells assessed as accumulation at S phase at 5 uM incubated for 3 days by propidium iodide staining based flow cytometry (reference value: 29%); format: functional
ZR-75-1 [24] = assay: Induction of cell cycle arrest in human ZR-75-1 cells assessed as accumulation at G2 phase at 5 uM incubated for 3 days by propidium iodide staining based flow cytometry (reference value: 7%); format: functional
ZR-75-1 [25] = assay: Induction of cell cycle arrest in human ZR-75-1 cells assessed as accumulation at G1 phase at 5 uM incubated for 4 days by propidium iodide staining based flow cytometry (reference value: 64%); format: functional
ZR-75-1 [26] = assay: Induction of cell cycle arrest in human ZR-75-1 cells assessed as accumulation at S phase at 5 uM incubated for 4 days by propidium iodide staining based flow cytometry (reference value: 29%); format: functional
ZR-75-1 [27] = assay: Induction of cell cycle arrest in human ZR-75-1 cells assessed as accumulation at G2 phase at 5 uM incubated for 4 days by propidium iodide staining based flow cytometry (reference value: 7%); format: functional
ZR-75-1 [28] = assay: Induction of necrosis in human ZR-75-1 cells at 5 uM incubated for 3 days by propidium iodide staining based flow cytometry (reference value: 8%); format: functional
ZR-75-1 [29] = assay: Induction of necrosis in human ZR-75-1 cells at 5 uM incubated for 4 days by propidium iodide staining based flow cytometry (reference value: 8%); format: functional
MCF7 [30] = assay: Induction of cell cycle arrest in human MCF7 cells assessed as accumulation at G1 phase at 5 uM incubated for 3 days by propidium iodide staining based flow cytometry (reference value: 70%); format: functional
MCF7 [31] = assay: Induction of cell cycle arrest in human MCF7 cells assessed as accumulation at S phase at 5 uM incubated for 3 days by propidium iodide staining based flow cytometry (reference value: 21%); format: functional
MCF7 [32] = assay: Induction of cell cycle arrest in human MCF7 cells assessed as accumulation at G2 phase at 5 uM incubated for 3 days by propidium iodide staining based flow cytometry (reference value: 9%); format: functional
MCF7 [33] = assay: Induction of necrosis in human MCF7 cells at 5 uM incubated for 3 days by propidium iodide staining based flow cytometry (reference value: 5%); format: functional
MCF7 [34] = assay: Induction of necrosis in human MCF7 cells at 5 uM incubated for 4 days by propidium iodide staining based flow cytometry (reference value: 5%); format: functional
ZR-75-1 [35] = assay: Growth inhibition in human ZR-75-1 cells assessed as reduction in cell number up to 96 hrs in presence of MUC1 siRNA; format: functional, cell-based
ZR-75-1 [36] = assay: Growth inhibition in human ZR-75-1 cells assessed as reduction in cell number up to 96 hrs in presence of control siRNA; format: functional, cell-based
HEK293 = assay: Growth inhibition of HEK293 cells assessed as reduction in cell number up to 96 hrs; format: cell-based; conditions: human, hek293, 96 h
MCF-10A [37] = assay: Induction of cell cycle arrest in human MCF10A cells assessed as accumulation at S phase at 5 uM incubated for 3 days by propidium iodide staining based flow cytometry (reference value: 38%); conditions: 72 h
MCF-10A [38] = assay: Induction of cell cycle arrest in human MCF10A cells assessed as accumulation at S phase at 5 uM incubated for 4 days by propidium iodide staining based flow cytometry (reference value: 38%); conditions: 96 h
MCF-10A [39] = assay: Growth inhibition in human MCF10A cells assessed as reduction in cell number up to 96 hrs; format: cell-based
[40] = Toxicity in nu/nu mouse assessed as effect on body weight at 50 mg/kg, ip for 11 days measured over next 28 days after stopping drug administration; format: organism-based; conditions: in vivo, 672 h
ZR-75-1 [41] = assay: Antitumor activity against human ZR-75-1 xenografted in nu/nu mouse assessed as reduction in tumor growth at 50 mg/kg/day, ip for 7 days measured on day 7; format: functional, organism-based
ZR-75-1 [42] = assay: Antitumor activity against human ZR-75-1 xenografted in nu/nu mouse assessed as reduction in tumor growth at 50 mg/kg/day, ip for 7 days followed by treatment cessation and measured over next 17 days; format: functional, organism-based
ZR-75-1 [43] = assay: Antitumor activity against human ZR-75-1 xenografted in nu/nu mouse assessed as induction of necrosis in tumor at 50 mg/kg/day, ip for 21 days; format: functional, organism-based
ZR-75-1 [44] = assay: Suppression of MUC1 protein expression in tumor area of human ZR-75-1 xenografted in nu/nu mouse at 50 mg/kg/day, ip for 21 days; format: functional, organism-based

Mucin-1 (Homo sapiens), sequence (P15941 24-1097 limits assumed): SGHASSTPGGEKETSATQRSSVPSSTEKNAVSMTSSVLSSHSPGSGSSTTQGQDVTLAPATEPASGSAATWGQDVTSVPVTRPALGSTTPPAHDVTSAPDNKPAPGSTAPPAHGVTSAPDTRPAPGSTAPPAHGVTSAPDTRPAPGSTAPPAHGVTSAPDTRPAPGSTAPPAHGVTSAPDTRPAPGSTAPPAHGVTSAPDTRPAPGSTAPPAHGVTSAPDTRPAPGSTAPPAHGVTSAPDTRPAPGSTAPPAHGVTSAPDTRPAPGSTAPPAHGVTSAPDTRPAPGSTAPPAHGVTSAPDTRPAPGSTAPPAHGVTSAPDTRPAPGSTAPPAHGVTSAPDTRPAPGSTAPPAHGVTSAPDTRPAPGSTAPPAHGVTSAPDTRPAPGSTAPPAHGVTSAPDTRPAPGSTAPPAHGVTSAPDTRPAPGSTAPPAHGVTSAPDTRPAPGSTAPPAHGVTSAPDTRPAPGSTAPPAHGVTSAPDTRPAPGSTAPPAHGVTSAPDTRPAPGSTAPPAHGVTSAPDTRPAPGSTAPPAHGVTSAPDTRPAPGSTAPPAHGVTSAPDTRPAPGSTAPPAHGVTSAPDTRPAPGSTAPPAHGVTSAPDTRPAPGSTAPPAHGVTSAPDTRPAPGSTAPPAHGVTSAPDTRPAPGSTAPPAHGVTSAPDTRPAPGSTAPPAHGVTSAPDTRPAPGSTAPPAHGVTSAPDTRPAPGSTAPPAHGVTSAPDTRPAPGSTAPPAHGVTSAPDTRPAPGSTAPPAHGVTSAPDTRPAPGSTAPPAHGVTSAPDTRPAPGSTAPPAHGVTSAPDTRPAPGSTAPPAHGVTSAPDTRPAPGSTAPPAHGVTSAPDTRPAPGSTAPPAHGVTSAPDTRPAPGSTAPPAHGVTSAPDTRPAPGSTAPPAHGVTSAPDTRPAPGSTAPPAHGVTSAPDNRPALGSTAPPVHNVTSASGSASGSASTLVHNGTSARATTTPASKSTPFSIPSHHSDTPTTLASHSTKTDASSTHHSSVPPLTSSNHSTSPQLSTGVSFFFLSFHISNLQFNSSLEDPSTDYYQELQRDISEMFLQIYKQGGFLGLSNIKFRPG
Mucin-1 (Homo sapiens), sequence (P15941 1098-1255 limits assumed): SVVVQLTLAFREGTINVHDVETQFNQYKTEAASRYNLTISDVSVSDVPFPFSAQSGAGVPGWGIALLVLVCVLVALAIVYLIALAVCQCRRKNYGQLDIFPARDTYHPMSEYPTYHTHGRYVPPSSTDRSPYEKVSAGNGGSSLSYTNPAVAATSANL

For O=c1cc(-c2ccccc2)oc2cc(O)c(O)c(O)c12 [BAICALEIN], the inhibition (Mucin-1 (Homo sapiens) [1]) was “inactive”, the inhibition (Mucin-1 (Homo sapiens) [2]) was “inactive” and the inhibition (Mucin-1 (Homo sapiens) [3]) was “inactive”. For the same molecule, the inhibition (Mucin-1 (Homo sapiens) [4]) was “inactive”, the “growth inhibition (GI)” value (MCF-10A [5]) was “inactive” and the Activity (MCF-10A [6]) was “inactive”. The Activity (MCF-10A [7]) was “inactive”, the Activity (MCF7 [8]) was “inactive” and the inhibition (Mucin-1 (Homo sapiens) [9]) was “inactive”. For the same molecule, the inhibition (Mucin-1 (Homo sapiens) [10]) was “inactive”, the Activity (MCF7 [11]) was 19% and the Activity (MCF-10A [12]) was 27%. For the same molecule, the Activity (MCF-10A [13]) was 28%.

For CCOC(=O)c1oc2cc(OCc3ccc(C(=O)OC)o3)ccc2c(=O)c1-c1ccc(C(=O)OC)o1, the inhibition (Mucin-1 (Homo sapiens) [1]) was over 50%.

For O=c1cc(C(F)(F)F)c2ccc(OCc3ccccc3)cc2o1, the inhibition (Mucin-1 (Homo sapiens) [1]) was over 50%.

With CC[C@H](C)[C@H](NC(=O)[C@H](CC(=O)O)NC(=O)[C@H](CC(C)C)NC(=O)[C@H](CCC(N)=O)NC(=O)CNC(=O)[C@H](Cc1ccc(O)cc1)NC(=O)[C@H](CC(N)=O)NC(=O)[C@H](CCCCN)NC(=O)[C@H](CCCNC(=N)N)NC(=O)[C@H](CCCNC(=N)N)NC(=O)[C@H](CS)NC(=O)[C@H](CCC(N)=O)NC(=O)[C@H](CS)NC(=O)[C@H](CCCNC(=N)N)NC(=O)[C@@H](CCCNC(=N)N)NC(=O)[C@@H](CCCNC(=N)N)NC(=O)[C@@H](CCCNC(=N)N)NC(=O)[C@@H](CCCNC(=N)N)NC(=O)[C@@H](CCCNC(=N)N)NC(=O)[C@@H](CCCNC(=N)N)NC(=O)[C@@H](CCCNC(=N)N)NC(=O)[C@H](N)CCCNC(=N)N)C(=O)N[C@@H](Cc1ccccc1)C(=O)N1CCC[C@H]1C(=O)O the inhibition (Mucin-1 (Homo sapiens) [14]) was “Active”, the inhibition (Mucin-1 (Homo sapiens) [15]) was “Active” and the Flu intensity [16] was 145. For the same molecule, the Flu intensity [17] was 252, the Flu intensity [18] was 615 and the Activity (ZR-75-1 [19]) was “inactive”. For the same molecule, the inhibition (Mucin-1 (Homo sapiens) [20]) was “Active”, the inhibition (Mucin-1 (Homo sapiens) [21]) was “Active” and the Activity (ZR-75-1 [22]) was 29%. It also gave an Activity (ZR-75-1 [23]) of 69%, an Activity (ZR-75-1 [24]) of 2% and an Activity (ZR-75-1 [25]) of 49%. It also gave an Activity (ZR-75-1 [26]) of 37%, an Activity (ZR-75-1 [27]) of 14% and an Activity (ZR-75-1 [28]) of 34%. For the same molecule, the Activity (ZR-75-1 [29]) was 74%, the Activity (MCF7 [30]) was 54% and the Activity (MCF7 [31]) was 46%. The Activity (MCF7 [32]) was 0%, the Activity (MCF7 [33]) was 24% and the Activity (MCF7 [34]) was 44%. For the same molecule, the “growth inhibition (GI)” value (ZR-75-1 [35]) was “inactive”, the “growth inhibition (GI)” value (ZR-75-1 [36]) was “Active” and the “growth inhibition (GI)” value (HEK293) was “Non-Toxic”. The Activity (MCF-10A [37]) was 42%, the Activity (MCF-10A [38]) was 42% and the “growth inhibition (GI)” value (MCF-10A [39]) was “Non-Toxic”. The Activity [40] was “Non-Toxic”, the Activity (ZR-75-1 [41]) was “Active” and the Activity (ZR-75-1 [42]) was “Active”. For the same molecule, the Activity (ZR-75-1 [43]) was “Active” and the Activity (ZR-75-1 [44]) was “Active”.

For COc1ccc2c(=O)c(-c3cscn3)c(C(F)(F)F)oc2c1, the inhibition (Mucin-1 (Homo sapiens) [1]) was over 50%.
